# Assay results published in the supplement of paper PMC10307832.
# How the values were obtained:
# Test in all cases: relative viability (nuclei count vs DMSO), 5 days (fraction); higher = more cells survive
# [1] = compound: Cc1cnc(CNC(=O)c2c(=O)c3ccc(N4CCCN(C)CC4)nc3n3c2sc2ccccc23)cn1 [CX-5461] + CS(=O)(=O)CCNCc1ccc(-c2ccc3ncnc(Nc4ccc(OCc5cccc(F)c5)c(Cl)c4)c3c2)o1 [Lapatinib] (partner 2 µM)
# Procedure, shortened: (§1)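 After 5 days of treatment, lung cancer cells in 1536-well plates were fixed and stained in a single step (final 0.05% Triton X-100, 1% formaldehyde, 1 ug/ml Hoechst) and their nuclei counted on 4× images. Treatment had been applied by pin tool the day after seeding as one drug alone or as a fixed anchor-drug dose with five library-drug doses (not always all listed) in √10 steps. Relative viability is the nuclei count of treated wells divided by that of vehicle wells, and values are medians of duplicate plates.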
# [2] = compound: O=C(Nc1cc(C(F)(F)F)cc(C(F)(F)F)c1)c1cc(Cl)ccc1O [IMD-0354] + CCNC(=O)c1noc(-c2cc(C(C)C)c(O)cc2O)c1-c1ccc(CN2CCOCC2)cc1 [Luminespib] (partner 0.01 µM)
# Procedure, shortened: as §1
# [3] = compound: O=C(Nc1cc(C(F)(F)F)cc(C(F)(F)F)c1)c1cc(Cl)ccc1O [IMD-0354] + CC(=O)c1c(C)c2cnc(Nc3ccc(N4CCNCC4)cn3)nc2n(C2CCCC2)c1=O [Palbociclib] (partner 0.5 µM)
# Procedure, shortened: as §1
# [4] = compound: O=C(Nc1cc(C(F)(F)F)cc(C(F)(F)F)c1)c1cc(Cl)ccc1O [IMD-0354] + N=C(N)NC(=N)NCCc1ccccc1 [Phenformin] (partner 250 µM)
# Procedure, shortened: as §1
Cell Line,relative viability ([1]; first compound 0.01 µM),relative viability ([1]; first compound 0.03162 µM),relative viability ([1]; first compound 0.1 µM),relative viability ([1]; first compound 0.3162 µM),relative viability ([1]; first compound 1 µM),relative viability ([2]; first compound 0.04 µM),relative viability ([2]; first compound 0.1265 µM),relative viability ([2]; first compound 0.4 µM),relative viability ([2]; first compound 1.265 µM),relative viability ([2]; first compound 4 µM),relative viability ([3]; first compound 0.04 µM),relative viability ([3]; first compound 0.1265 µM),relative viability ([3]; first compound 0.4 µM),relative viability ([3]; first compound 1.265 µM),relative viability ([3]; first compound 4 µM),relative viability ([4]; first compound 0.04 µM),relative viability ([4]; first compound 0.1265 µM),relative viability ([4]; first compound 0.4 µM),relative viability ([4]; first compound 1.265 µM),relative viability ([4]; first compound 4 µM)
COR-L 105,0.363,0.405,0.376,0.265,0.267,0.891,0.906,0.463,0.317,0.236,0.404,0.395,0.394,0.33,0.284,0.659,0.462,0.39,0.183,0.211
NCI-H1355,1.03,0.976,1.15,0.293,0.785,0.769,0.585,0.567,0.333,0.32,0.385,0.41,0.378,0.195,0.253,0.437,0.415,0.432,0.24,0.236
H3255,0.237,0.236,0.263,0.167,0.236,0.776,0.845,0.778,0.293,0.285,0.33,0.331,0.306,0.275,0.274,0.338,0.364,0.345,0.288,0.332
NCI-H1993,0.769,0.84,0.881,0.802,0.762,0.852,0.701,0.623,0.483,0.619,0.657,0.384,0.501,0.443,0.406,0.48,0.495,0.438,0.465,0.524
NCI-H1734,1.08,1.12,0.951,0.553,0.523,0.201,0.181,0.2,0.147,0.143,0.352,0.352,0.314,0.232,0.196,0.393,0.284,0.257,0.165,0.129
HOP-62,1.11,1.12,1.23,0.167,0.908,0.998,0.864,0.53,0.509,0.166,0.454,0.39,0.299,0.266,0.0933,0.842,0.482,0.363,0.12,0.165
LOU-NH91,0.63,0.811,0.747,0.442,0.68,0.348,0.334,0.32,0.176,0.213,0.538,0.464,0.242,0.188,0.243,0.498,0.393,0.208,0.143,0.166
NCI-H2228,1.13,0.764,0.473,0.668,0.166,0.102,0.169,0.109,0.128,0.145,0.618,0.618,0.683,0.21,0.322,0.372,0.224,0.233,0.084,0.165
PC-14,0.328,0.457,0.304,0.104,0.337,0.143,0.18,0.152,0.134,0.109,0.574,0.533,0.317,0.129,0.189,0.817,0.59,0.221,0.107,0.112
NCI-H1437,0.779,0.869,–,0.519,0.528,1.21,0.899,0.45,0.191,0.202,0.338,0.29,0.166,0.141,0.162,0.317,0.279,0.195,0.15,0.2
NCI-H460,1.17,1.11,0.23,0.0503,0.0174,0.0305,0.0328,0.0332,0.0223,0.0144,0.147,0.138,0.206,0.024,0.04,0.514,0.365,0.103,0.0203,0.0155
NCI-H1666,0.733,0.637,–,0.55,0.398,1.06,1.06,0.963,0.499,0.369,0.737,0.616,0.601,0.57,0.495,0.592,0.558,0.476,0.384,0.254
NCI-H1651,–,0.482,–,0.714,0.117,0.984,0.557,0.289,0.247,0.153,0.504,0.507,0.415,0.516,0.182,0.35,0.22,0.198,0.106,0.0771
NCI-H1755,1.05,1.03,1.06,0.531,0.972,0.321,0.515,0.312,0.456,0.289,0.448,0.456,0.419,0.396,0.224,0.603,0.547,0.411,0.273,0.252
NCI-H661,0.382,0.533,0.611,–,0.402,0.971,0.946,0.364,0.254,0.217,0.397,0.385,0.369,0.276,0.253,0.268,0.249,0.224,0.198,0.232
HARA,0.904,0.921,0.84,0.861,0.348,0.863,0.689,0.37,0.16,0.125,0.237,0.202,0.314,0.195,0.204,0.422,0.47,0.154,0.0947,0.0925
